Data published in US20110034472A1, “Novel Compounds for Treatment of Cancer and Disorders Associated With Angiogenesis Function” (UNIVERSITY OF SOUTHERN CALIFORNIA, priority 2004, published 2011).
Entries after “also recorded” stand apart in the source; their conditions may differ. Counter-ions that a name gives are not always drawn.

Experiments:
human CYP3A4 = human CYP3A4 (Homo sapiens, UniProt P08684); test: Inhibition of human cDNA-expressed CYP3A4 (BFC metabolism); assay type: in vitro ADME; conditions: BFC substrate, 37° C.
Method: The metabolism of fluorescent substrates by human cDNA-expressed CYP3A4 was assessed by incubation in 96 well plate at 37° C. Metabolism of 7-benzyloxy-4-trifluoromethylcoumarin (BFC) was assayed by measuring the production of the corresponding 7-hydroxy-4-trifluoro-methylcoumarin.
The investigation of cytochrome P450 enzyme inhibition by potential drug candidates can aid in predicting drug-drug interactions and/or unfavorable PK profiles produced upon dosing.

MDA-MB-435 cells = test: MTT assay, continuous drug exposure for 48 hours (Table 3); assay type: cell-based, human
CEM or HEY cells = test: Cytotoxicity of salicylhydrazides (Table 5); assay type: cell-based; conditions: Homo sapiens
Excerpt: Human prostate cancer cells (PC3, p53 null, AR−; DU145, p53 mutant, AR−; and LNCaP, p53 wild-type, AR+) and breast cancer cells (MCF-7, overexpressed wild-type p53, ER+; MDA-MB-468, p53 mutant, […]; and MDA-MB-435, p53 mutant, ER−) were obtained from American Type Cell Culture (Manassas, Va.). The human ovarian carcinoma cell line (HEY) naturally resistant to cisplatin (CDDP) was kindly provided by Dr. Dubeau (University of Southern California Norris Cancer Center; Buick et al. (1985) Cancer Res. 45:3668-76 and Hamaguchi et al. (1993) Cancer Res. 53:5225-32). The results with CEM cells were previously described (Neamati et al. (1998) J. Med. Chem. 41:3202-9). Cells were maintained as monolayer cultures in RPMI 1640 supplemented with 10% fetal bovine serum (Gemini-Bioproducts, Woodland, Calif.) and 2 mmol/L L-glutamine at 37° C. in a humidified atmosphere of 5% CO2. To remove the adherent cells from the flask for passaging and counting, cells were washed with PBS without calcium or magnesium, incubated with a small volume of 0.25% trypsin-EDTA solution (Sigma-Aldrich, St. Louis, Mo.) for 5 to 10 minutes, and washed with culture medium and centrifuged. All experiments were done using cells in exponential cell growth.
(§1) Cytotoxicity was assessed by a 3-(4,5-dimethylthiazol-2-yl)-2,5-diphenyltetrazolium bromide assay as previously described (Carmichael et al. (1987) Cancer Res. 47:936-42). Briefly, cells were seeded in 96-well microtiter plates (PC3 and DU145 at 5,000 cells/well and LNCaP at 10,000 cells/well; breast and ovarian cells at 4,000 cells/well) and allowed to attach. Cells were subsequently treated with a continuous exposure to the corresponding drug for 72 hours. A 3-(4,5-dimethylthiazol-2-yl)-2,5-diphenyltetrazolium bromide solution (at a final concentration of 0.5 mg/mL) was added to each well and cells were incubated for 4 hours at 37° C. After removal of the medium, DMSO was added and the absorbance was read at 570 nm. All assays were done in triplicate. The IC50 was then determined for each drug from a plot of log(drug concentration) versus percentage of cell kill.

HT29 colon cancer cells = test: MTT cytotoxicity assay, HT 29; assay type: cell-based, human; conditions: Homo sapiens, 72 h
Excerpt: (§2) Human breast cancer cells MDA-MB-435 and colon cancer HT29, p53 mutant were purchased from the American Type Cell Culture (Manassas, Va.). The HCT116 P53^+/+ and HCT116 P53^−/− cells were kindly provided by Dr. Bert Vogelstein (Johns Hopkins Medical Institutions, Baltimore, Md.). Human prostate cancer cells, LNCaP, were kindly provided by Richard Cote (University of Southern California Keck School of Medicine). Cells were maintained as monolayer cultures in RPMI 1640 media supplemented with 10% fetal bovine serum (Gemini-Bioproducts, Woodland, Calif.) and 2 mmol/L L-glutamine at 37° C. in a humidified atmosphere of 5% CO2. To remove the adherent cells from the flask for passaging and counting, cells were washed with PBS without calcium or magnesium, incubated with a small volume of 0.25% trypsin-EDTA solution (Sigma-Aldrich, St. Louis, Mo.) for 5-10 min, and washed with culture medium and centrifuged. All experiments were performed using cells at exponential growth stage. Cells were routinely checked for mycoplasma contamination using a PCR-based assay (Stratagene, Cambridge, UK).
(§3) Cytotoxicity was assessed by a 3-(4,5-dimethylthiazol-2-yl)-2,5-diphenyltetrazolium bromide (MTT) assay as previously described.^9 Briefly, cells were seeded in 96-well microtiter plates and allowed to attach. Cells were subsequently treated with continuous exposure to the corresponding drug for 72 h. An MTT solution (at a final concentration of 0.5 mg/mL) was added to each well, and cells were incubated for 4 h at 37° C. After removal of the medium, DMSO was added and the absorbance was read at 570 nm. All assays were done in triplicate. The IC50 was then determined for each drug from a plot of log (drug concentration) versus percentage of cells killed.

[1] = tested on: HCT 116 p53^−/− colon cancer cells; test: MTT cytotoxicity assay, HCT 116 p53-/-; assay type: cell-based, human; conditions: Homo sapiens, 72 h
Excerpt: as §2, §3

[2] = tested on: MDA-MB-435 breast cancer cells; test: MTT cytotoxicity assay, MDA-MB-435; assay type: cell-based, human; conditions: for IC50: Homo sapiens, MTT, 72 h, read-out: IC50
Method: The sensitivity of a panel of seven human cancer cell lines to SC144 was assessed by MTT-assay. […] The sensitivity towards SC144 was time- and dose-dependent.
as §1, §3

[3] = tested on: HCT 116 p53^+/+ colon cancer cells; test: MTT cytotoxicity assay, HCT 116 p53+/+; assay type: cell-based, human; conditions: Homo sapiens, 72 h
Excerpt: as §2, §3

[4] = tested on: human cancer cell lines (MDA-MB-435 and three colon cancer cells); test: MTT assay, panel of breast, colon and prostate cell lines (Example V); assay type: cell-based; conditions: for IC50: Homo sapiens, MDA-MB-435, representative breast, colon, and prostate cell lines, MTT assay, read-out: IC50 values range
Method: All new compounds were tested in four human cancer cell lines, a breast cancer cell, MDA-MB-435, and three colon cancer cells.
as §3

[5] = tested on: LNCaP prostate cancer cells; test: MTT cytotoxicity assay, LNCaP; assay type: cell-based; conditions: Homo sapiens, hLNCaP, MTT, 72 h, read-out: IC50
Method: as §1, §3

cancer cells = test: Colony formation assay; assay type: cell-based; conditions: doses ≧1 uM; hydrochloride
Method: FIG. 32. […] (A) The IC50 values of SC161′ range from 0.3 to 4 uM in representative breast, colon, and prostate cell lines using MTT assay.
Colony formation assays were also performed to confirm the activity of these compounds as described.^10 Briefly, cells were plated in 6-well plates at a density of 100 cells/well and allowed to attach. The next day, serial dilutions of the corresponding compounds were added and allowed to incubate for 24 h. After exposure, cells were washed in PBS and cultured in free media until colonies were formed (8-10 days). Cells were subsequently washed, fixed with a 1% glutaraldehyde solution for 30 min, and stained with a solution of crystal violet (2%) for 30 min. After staining, cells were thoroughly washed with water. Colonies were imaged on the Versa-Doc Imaging System (Bio-Rad) and counted using the Quantity One quantitation software package (Bio-Rad). The data reported represent means of at least three independent experiments.

human CYP3A4, sequence (P08684 whole entry): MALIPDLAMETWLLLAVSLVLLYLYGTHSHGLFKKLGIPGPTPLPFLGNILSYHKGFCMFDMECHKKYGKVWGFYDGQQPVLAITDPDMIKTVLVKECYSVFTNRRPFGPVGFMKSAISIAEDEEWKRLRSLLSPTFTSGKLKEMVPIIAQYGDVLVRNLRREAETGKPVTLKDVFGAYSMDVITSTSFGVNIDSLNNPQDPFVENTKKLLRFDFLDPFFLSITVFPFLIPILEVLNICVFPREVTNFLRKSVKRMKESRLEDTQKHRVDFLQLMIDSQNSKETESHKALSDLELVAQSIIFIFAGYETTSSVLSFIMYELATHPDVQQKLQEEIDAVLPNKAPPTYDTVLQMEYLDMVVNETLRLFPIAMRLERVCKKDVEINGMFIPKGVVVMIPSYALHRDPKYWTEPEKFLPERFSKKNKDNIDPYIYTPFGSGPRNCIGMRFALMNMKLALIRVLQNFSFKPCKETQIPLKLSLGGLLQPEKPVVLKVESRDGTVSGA

With C=C/C=C(\C(=C)O)C(=O)N1N=C(C)/C(=C\c2cccc(O)c2)C1=O [SC24] the “inhibition of CYP3A4 activity” value (human CYP3A4) was “does not significantly inhibit CYP3A4 activity”, the CC50 (MDA-MB-435 cells) was 0.24 ± 0.03 µM and the IC80 (MDA-MB-435 cells; Homo sapiens, MDA-MB-435, read-out: CC80) was 0.97 µM. The IC50 (CEM or HEY cells) was 0.13 µM.

Compound O=C(NNc1nc2ccccc2n2cccc12)C1CSCN1 (stereo not shown) [SC153, Thiazolidine-4-carboxylic acid N′-pyrrolo[1,2-a]quinoxalin-4-yl-hydrazide] has an IC50 (HT29 colon cancer cells) of 14 ± 1 µM, a melting point of 162 °C and an IC50 [1] of 10 ± 2 µM. For the same compound, the “activity against the breast cancer line” value [2] was “inactive”, the IC50 [2] was > 20 µM and the IC50 [3] was 15 ± 3 µM. The “activity against colon cancer lines” value [4] was “moderately active”.

With O=C(NNc1nc2ccccc2n2cccc12)c1ccc2cc[nH]c2c1 [SC157, 1H-Indole-6-carboxylic acid N′-pyrrolo[1,2-a]quinoxalin-4-yl-hydrazide] the IC50 (HT29 colon cancer cells) was > 20 µM, the melting point was 198.5 °C and the IC50 [1] was > 20 µM. For the same compound, the IC50 [2] was > 20 µM and the IC50 [3] was > 20 µM.

For O=C(NNc1nc2ccccc2n2cccc12)c1c[nH]c2ccccc12 [SC158, 1H-Indole-3-carboxylic acid N′-pyrrolo[1,2-a]quinoxalin-4-yl-hydrazide], the IC50 (HT29 colon cancer cells) was > 20 µM, the melting point was 162.5 °C and the IC50 [1] was > 20 µM. The IC50 [2] was > 20 µM and the IC50 [3] was > 20 µM.

In the case of NC(CC(=O)NNc1nc2ccccc2n2cccc12)c1ccccc1Cl (stereo not shown) [SC160, 3-Amino-3-(2-chloro-phenyl)-propionic acid N′-pyrrolo[1,2-a]quinoxalin-4-yl-hydrazide], the IC50 (HT29 colon cancer cells) is reported as 17 µM, the IC50 [1] is reported as > 20 µM and the IC50 [2] is reported as > 20 µM. The IC50 [5] was > 20 µM and the IC50 [3] was > 20 µM.

In the case of O=C(NNc1nc2cc(F)ccc2n2cccc12)c1ccccn1 [SC160′, N′-(7-Fluoropyrrolo[1,2-a]quinoxalin-4-yl)pyridine-2-carbohydrazide hydrochloride], the “activity in all cell lines” value [4] is reported as “inactive”.

NC(CC(=O)NNc1nc2ccccc2n2cccc12)c1ccc(Cl)cc1 (stereo not shown) [SC161, 3-Amino-3-(4-chloro-phenyl)-propionic acid N′-pyrrolo[1,2-a]quinoxalin-4-yl-hydrazide] gave an IC50 (HT29 colon cancer cells) of 0.3 ± 0.06 µM, an IC50 [1] of 0.3 ± 0.07 µM and an IC50 [2] of 3 ± 2 µM. It also gave an IC50 [5] of 0.4 µM and an IC50 [3] of 0.4 ± 0.01 µM.

With O=C(NNc1nc2cccc(F)c2n2cccc12)c1cnccn1 [SC161′, N′-(9-Fluoropyrrolo[1,2-a]quinoxalin-4-yl)pyrazine-2-carbohydrazide hydrochloride] the colony formation (cancer cells) was “completely blocks colony formation; also recorded: completely abolished cell growth”, the “activity in all cell lines” value [4] was “highly active” and the IC50 [4] was 0.3 to 4 µM.

For Cl.O=C(NNc1nc2cc(F)ccc2n2cccc12)c1cccnc1 [SC162′, N′-(7-Fluoropyrrolo[1,2-a]quinoxalin-4-yl)nicotinyl hydrazide hydrochloride], the “activity in all cell lines” value [4] was “inactive”.

For O=C(NNc1nc2cc(F)ccc2n2cccc12)c1cnc2ccccc2n1 [SC166′, N′-(7-Fluoropyrrolo[1,2-a]quinoxalin-4-yl)quinoxaline-2-carbohydrazide hydrochloride], the IC50 [4] was 8 to 15 µM.
